Reference: patent US20080206770A1, “SCREENING METHODS USED TO IDENTIFY COMPOUNDS THAT MODULATE SKIN STROMAL CELLS (FIBROBLASTS) ABILITY TO MODIFY FUNCTION OF EXTRACELLULAR MATRIX” (priority 2007, published 2008)

Tests used:
[1] = test system: dermal fibroblasts isolated from 17 individuals; experiment: Real time RT-PCR of ECM components, nuclear hormone receptors and coregulators in fibroblasts from 17 individuals; format: cell-based, human
Procedure: Total RNA was extracted from cells using RNA aqueous kit (Ambion, USA). First-strand cDNAs were synthesized with Superscript III reverse transcriptase (Invitrogen, USA) and 1 μg of total RNA using oligo d(T) priming in a final reaction volume of 40 μL.
Levels of specific mRNAs were measured by real-time RT-PCR using Platinum SYBR Green qPCR SuperMix UDG (Invitrogen) according the protocol on the LightCycler 2.0 (Roche, US). The cycling program steps were: for one cycle 50° C. 2 min, for one cycle 95° C. 2 min and for 45 cycles: 95° C. 10 s, 60° C. 10 s, 72° C. 10 s. All samples were run in triplicates. Results were analyzed with the comparative Ct method (from Applied Biosystems manual; Livak and Schmittgen, 2001). Every sample was normalized for the housekeeping gene GAPDH. Transcript levels in the atRA and TGFb1 treated samples were compared to control samples.

[2] = test system: skin fibroblasts from 30 individuals; experiment: Combined score of expression stimulation of 5 genes in fibroblast isolates (FIG. 1); format: cell-based, human; settings: 24 hour treatment, atRA 10^-7 M, Matrixyl 1 μM, KappaElastin 1 μM
Procedure: (§1) Human dermal fibroblasts were grown in DMEM cell culture media containing 10% fetal bovine serum and 1% penicillin/streptomycin (Invitrogen). For all experiments, third-passage fibroblasts were used one day after reaching confluence. […] After 24 hour treatment RNA and protein was isolated and analyzed for the expression of components of ECM and transcriptional regulators.
Total RNA from various human tissues was purified using RNAwiz (Ambion, USA) and subjected to subsequent DNase I treatment using the DNA-Free kit (Ambion). Total RNA from cancer cells was purified by using 4PCRmini kit (Ambion). First-strand cDNAs were synthesized with Superscript III reverse transcriptase (Invitrogen, USA) and 5 μg of total RNA using oligo d(T) priming in a final reaction volume of 50 μL
The cDNA was amplified by PCR using the 2.5 U Hot-Firepol (Solis BioDyne, Estonia) and buffer Yellow (Naxo, Estonia). Reaction was performed in a 10 ul volume, using 0.5 ul cDNA as a template. Following primer sets were designed for this study:
The combined score of expression stimulation of 5 genes was calculated and blotted for each fibroblast isolate. […] This biological variation provides a good biological rational to use molecular diagnostics for matching cosmetics product and skin cells of specific individual (personalized cosmetics).

[3] = test system: Human dermal fibroblasts; experiment: Western blot analysis of protein levels of ECM components after atRA treatment; format: cell-based; settings: fold induction (+) or suppression (−) vs control; 10^-7 M, 24 hours
Procedure: as §1
Cells were lysed in Cell Disruption Buffer supplied with the Paris kit (Ambion) and protein concentration was determined using Bradford reagent (Pierce). Proteins were separated on 10% SDS-PAAG and transferred into the PVDF membrane (Biorad). […] Signal was detected using ECL reagent (Pierce).

[4] = fibroblasts from 17 individuals, 1 μM, 24 hours

variation between individual fibroblasts of expression of coactivators NCOA1, NCOA2 and NCOA3 ([1]; in response to atRA, 17 individuals): highest variation
Structure (SMILES): CC1=C(/C=C/C(C)=C/C=C/C(C)=C/C(=O)O)C(C)(C)CCC1 [all trans retinoic acid, all-trans retinoic acid]
Individual variation of gene expression in RA treatment: MMP2 gelatinase [1, 4]: 5.05 fold
Individual variation of gene expression in RA treatment: MMP3 stromelysin [1, 4]: 6.4 fold
Individual variation of gene expression in RA treatment: MMP7 [1, 4]: 16.46 fold
Individual variation of gene expression in RA treatment: MMP10, stromelysin 2 [1, 4]: 12 fold
Individual variation of gene expression in RA treatment: MMP19 [1, 4]: 3.41 fold
Individual variation of gene expression in RA treatment: NCOA1 [1, 4]: 5.68 fold
Individual variation of gene expression in RA treatment: NCOA2 [1, 4]: 5.63 fold
Individual variation of gene expression in RA treatment: NCOA3 [1, 4]: 6.16 fold
Individual variation of gene expression in RA treatment: NCOA5 [1, 4]: 3.1 fold
Individual variation of gene expression in RA treatment: NCOA6 [1, 4]: 3.43 fold
Individual variation of gene expression in RA treatment: NCOA7 [1, 4]: 4.44 fold
Individual variation of gene expression in RA treatment: NCOR1 [1, 4]: 4.2 fold
Individual variation of gene expression in RA treatment: PC4 [1, 4]: 3.57 fold
Individual variation of gene expression in RA treatment: PPARG [1, 4]: 4.59 fold
Individual variation of gene expression in RA treatment: RARA [1, 4]: 4.44 fold
Individual variation of gene expression in RA treatment: RARG [1, 4]: 3.37 fold
Individual variation of gene expression in RA treatment: RXRA [1, 4]: 4.34 fold
Individual variation of gene expression in RA treatment: RXRG [1, 4]: 4.01 fold
Individual variation of gene expression in RA treatment: TIMP1 [1, 4]: 4.21 fold
MMP1, collagenase 1 expression in RA treatment compared to control, from-to between individuals [1, 4]: (from −3.38 to 3.71) fold
MMP2 gelatinase expression in RA treatment compared to control, from-to between individuals [1, 4]: (from −2.7 to 2.35) fold
MMP3 stromelysin expression in RA treatment compared to control, from-to between individuals [1, 4]: (from −3.73 to 2.67) fold
MMP7 expression in RA treatment compared to control, from-to between individuals [1, 4]: (from −14.77 to 1.69) fold
MMP10, stromelysin 2 expression in RA treatment compared to control, from-to between individuals [1, 4]: (from −5.15 to 6.84) fold
MMP19 expression in RA treatment compared to control, from-to between individuals [1, 4]: (from −2.4 to 1.01) fold
NCOA1 expression in RA treatment compared to control, from-to between individuals [1, 4]: (from −2.99 to 2.69) fold
NCOA2 expression in RA treatment compared to control, from-to between individuals [1, 4]: (from −1.95 to 3.68) fold
NCOA3 expression in RA treatment compared to control, from-to between individuals [1, 4]: (from −2.02 to 4.14) fold
NCOA5 expression in RA treatment compared to control, from-to between individuals [1, 4]: (from −1.25 to 1.85) fold
NCOA6 expression in RA treatment compared to control, from-to between individuals [1, 4]: (from −1.44 to 1.99) fold
NCOA7 expression in RA treatment compared to control, from-to between individuals [1, 4]: (from −1.85 to 2.59) fold
NCOR1 expression in RA treatment compared to control, from-to between individuals [1, 4]: (from −2.23 to 1.97) fold
PC4 expression in RA treatment compared to control, from-to between individuals [1, 4]: (from −1.8 to 1.77) fold
PPARG expression in RA treatment compared to control, from-to between individuals [1, 4]: (from −1.64 to 2.95) fold
RARA expression in RA treatment compared to control, from-to between individuals [1, 4]: (from −1.53 to 2.91) fold
RARG expression in RA treatment compared to control, from-to between individuals [1, 4]: (from −1.45 to 1.92) fold
RXRA expression in RA treatment compared to control, from-to between individuals [1, 4]: (from −1.75 to 2.59) fold
RXRG expression in RA treatment compared to control, from-to between individuals [1, 4]: (from −2.02 to 1.99) fold
induced or repressed expression of different genes (Col1A1, Col4A1, Elastin, MMP1, MMP7) ([1]; in different fibroblast isolates, 17 individuals, 1 μM, 24 hours): up to 8 fold
combined score of expression stimulation of 5 genes (COL1A1, COL2A1, elastin, proteoglycan, TIMP1) per fibroblast isolate [2]: 3 groups of fibroblasts that have different response
COL1A1 protein level [3]: 2 fold
COL1A2 protein level [3]: 2 fold
COL2A1 protein level [3]: 3 fold
COL3A1 protein level [3]: 2 fold
COL4A1 protein level [3]: 1 fold
COL4A2 protein level [3]: 1 fold
COL4A3 protein level [3]: 1 fold
COL4A4 protein level [3]: 1 fold
COL5A1 protein level [3]: 1 fold
Elastin ELN protein level [3]: 2 fold
Lysyl oxidase protein level [3]: 3 fold
MMP2 protein level [3]: 2 fold
MMP-11 protein level [3]: 3 fold
decorin protein level [3]: 4 fold
